Activity calls are given as the source filed them. The rule behind the calls is not given here.
Experiments:
A549 [1] = experiment: Antiproliferative activity against human A549 cells expressing lentivirus RNAi VTI-96660 assessed as inhibition of cell growth measured after 48 hrs by MTT assay; assay type: functional, cell-based
HepG2 = experiment: Antiproliferative activity against human HepG2 cells assessed as inhibition of cell growth measured after 48 hrs by MTT assay; assay type: functional, cell-based; conditions: HepG2, 48 h
A549 [2] = experiment: Antiproliferative activity against human A549 cells expressing lentivirus RNAi VTI-96658 assessed as inhibition of cell growth measured after 48 hrs by MTT assay; assay type: functional, cell-based
MDA-MB-231 = experiment: Antiproliferative activity against human MDA-MB-231 cells assessed as inhibition of cell growth measured after 48 hrs by MTT assay; assay type: functional, cell-based; conditions: MDA-MB-231, 48 h
SK-OV-3 = experiment: Antiproliferative activity against human SK-OV-3 cells assessed as inhibition of cell growth measured after 48 hrs by MTT assay; assay type: functional, cell-based; conditions: SK-OV-3, 48 h
Tubulin (Sus scrofa) = Tubulin (Sus scrofa) (UniProt P02554+P02550); experiment: Inhibition of porcine brain tubulin polymerization at 10 uM measured at 1 min interval for 60 mins by fluorescence based analysis
B16-F10 = experiment: Antiproliferative activity against mouse B16-F10 cells assessed as inhibition of cell growth measured after 48 hrs by MTT assay; assay type: functional, cell-based; conditions: B16-F10, 48 h
A549 [3] = experiment: Antiproliferative activity against human A549 cells assessed as inhibition of cell growth measured after 48 hrs by MTT assay; assay type: functional, cell-based; conditions: A549, 48 h
A549 [4] = experiment: Antiproliferative activity against human A549 cells expressing lentivirus RNAi VTI-96659 assessed as inhibition of cell growth measured after 48 hrs by MTT assay; assay type: functional, cell-based
HeLa = experiment: Antiproliferative activity against human HeLa cells assessed as inhibition of cell growth measured after 48 hrs by MTT assay; assay type: functional, cell-based
A2780 = experiment: cells; conditions: Homo sapiens, A2780, 48 h
Description: Antiproliferative activity against human A2780 cells assessed as inhibition of cell growth incubated for 48 hrs by MTT assay

A2780/Taxol = experiment: Antiproliferative activity against paclitaxel resistant human A2780/Taxol cells assessed as inhibition of cell growth incubated for 48 hrs by MTT assay; assay type: functional, cell-based
A549 [5] = experiment: Antitumor activity against human A549 cells xenografted in BALB/c mouse assessed as tumor growth inhibition at 10 mg/kg, ip administered every other day for 25 days; assay type: functional; conditions: A549, 600 h, time 25 day, read-out: TGI
A549 [6] = experiment: Antitumor activity against human A549 cells xenografted in BALB/c mouse assessed as tumor volume at 10 mg/kg, ip administered every other day for 25 days; assay type: functional; conditions: time 25 day
[7] = Toxicity in BALB/c mouse xenografted with human A549 cells assessed as change in body weight at 10 mg/kg, ip administered every other day for 25 days; assay type: organism-based; conditions: in vivo, 600 h, time 25 day
A549 [8] = experiment: Antitumor activity against human A549 cells xenografted in BALB/c mouse assessed as tumor weight at 10 mg/kg, ip administered every other day for 25 days; assay type: functional, organism-based; conditions: time 25.0 day

Chain of Tubulin (Sus scrofa) (P02550 whole entry, looked up): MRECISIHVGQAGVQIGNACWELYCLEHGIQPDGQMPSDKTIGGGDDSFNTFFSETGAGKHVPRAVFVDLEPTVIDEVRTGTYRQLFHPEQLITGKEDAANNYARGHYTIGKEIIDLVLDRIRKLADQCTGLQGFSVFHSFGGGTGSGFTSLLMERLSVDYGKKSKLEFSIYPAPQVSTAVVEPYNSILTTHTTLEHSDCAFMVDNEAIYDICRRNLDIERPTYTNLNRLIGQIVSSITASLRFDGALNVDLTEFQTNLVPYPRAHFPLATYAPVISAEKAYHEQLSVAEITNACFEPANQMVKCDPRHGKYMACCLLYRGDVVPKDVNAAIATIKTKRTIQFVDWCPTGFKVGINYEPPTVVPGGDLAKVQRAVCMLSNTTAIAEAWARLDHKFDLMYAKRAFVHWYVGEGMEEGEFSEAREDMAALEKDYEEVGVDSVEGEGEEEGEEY
Chain of Tubulin (Sus scrofa) (P02554 whole entry, looked up): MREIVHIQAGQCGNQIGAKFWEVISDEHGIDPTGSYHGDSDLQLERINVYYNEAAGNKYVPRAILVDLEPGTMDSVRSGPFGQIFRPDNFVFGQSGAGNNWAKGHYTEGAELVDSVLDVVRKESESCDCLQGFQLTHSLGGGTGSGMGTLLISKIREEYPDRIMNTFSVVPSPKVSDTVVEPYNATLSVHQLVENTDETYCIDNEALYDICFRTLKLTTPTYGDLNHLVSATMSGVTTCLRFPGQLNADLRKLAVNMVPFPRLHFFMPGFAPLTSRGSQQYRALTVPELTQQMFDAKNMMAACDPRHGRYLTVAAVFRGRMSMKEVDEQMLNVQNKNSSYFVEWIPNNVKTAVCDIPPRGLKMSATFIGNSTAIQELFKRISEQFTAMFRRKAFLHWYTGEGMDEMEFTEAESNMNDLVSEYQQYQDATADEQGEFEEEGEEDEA

IC50 (HepG2) [nM] | IC50 (MDA-MB-231) [nM] | IC50 (SK-OV-3) [nM] | inhibition (Tubulin (Sus scrofa)) | IC50 (B16-F10) [nM] | IC50 (A549 [3]) [nM] | SMILES | Activity (A549 [1]) | Activity (A549 [2]) | Activity (A549 [4]) | IC50 (HeLa) [nM] | IC50 (A2780) [nM] | IC50 (A2780/Taxol) [nM] | inhibition in vivo at 10 mg/kg (A549 [5]) [%] | Activity (A549 [6]) [%] | Activity [7] | Activity (A549 [8])
28.5 | 45.3 | 63.2 | Active | 60.7 | 84.1 | O=C(Nc1cccc(Nc2cc(Nc3cccc(C(F)(F)F)c3)ncn2)c1)C1CC1 | Active | Active | Active | 83.4 |  |  |  |  |  | 
2.5 | 1.1 | 34.5 | inactive | > 1000 | 3.8 | CC(=O)O[C@H]1C(=O)[C@@]2(C)[C@H]([C@H](OC(=O)c3ccccc3)[C@]3(O)C[C@H](OC(=O)[C@H](O)[C@@H](NC(=O)c4ccccc4)c4ccccc4)C(C)=C1C3(C)C)[C@]1(OC(C)=O)CO[C@@H]1C[C@@H]2O [PACLITAXEL] |  |  |  |  |  | 17900 | 48.6 | 46.53 | Non-Toxic | Active

SMILES | IC50 (HepG2) [nM] | IC50 (MDA-MB-231) [nM] | IC50 (SK-OV-3) [nM] | inhibition (Tubulin (Sus scrofa)) | IC50 (B16-F10) [nM] | IC50 (A549 [3]) [nM] | Activity (A549 [1]) | Activity (A549 [2]) | Activity (A549 [4]) | IC50 (HeLa) [nM] | IC50 (A2780) [nM] | IC50 (A2780/Taxol) [nM] | inhibition in vivo at 10 mg/kg (A549 [5]) [%] | Activity (A549 [6]) [%] | Activity [7] | Activity (A549 [8])
COc1cc2c(c(OC)c1OC)-c1ccc(OC)c(=O)cc1[C@@H](NC(C)=O)CC2 [COLCHICINE] | 83.7 | 67.4 | 7.2 |  | 29.2 |  |  |  |  | 33.5 | 20 | 253 |  |  |  | 
